Experimental data as given in paper PMC11768184, “Non-Steroidal Anti-Inflammatory Drugs Are Inhibitors of the Intestinal Proton-Coupled Amino Acid Transporter (PAT1): Ibuprofen and Diclofenac Are Non-Translocated Inhibitors” (Pharmaceutics, 2025).
Each block holds one molecule with its values, some of them ahead of it.

How the values were obtained:
Type in all cases: cell-based
[1] = biological target: T1, proton-coupled amino acid transporter (hPAT1) (Homo sapiens, UniProt Q7Z2H8); experiment: TEVC in hPAT1-expressing Xenopus oocytes; [3H]-proline uptake inhibition and kinetics in Caco-2 cells, pH […]
T1 construct: gene SLC36A1

[2] = biological target: T1, proton-coupled amino acid transporter (hPAT1); experiment: concentration-dependent inhibition of [3H]-proline uptake in Caco-2 cells, pH […]
[3] = biological target: T1, proton-coupled amino acid transporter (hPAT1); experiment: TEVC in hPAT1-expressing Xenopus oocytes; [3H]-proline uptake inhibition in Caco-2 cells, pH […]

T1 sequence (Q7Z2H8 whole entry): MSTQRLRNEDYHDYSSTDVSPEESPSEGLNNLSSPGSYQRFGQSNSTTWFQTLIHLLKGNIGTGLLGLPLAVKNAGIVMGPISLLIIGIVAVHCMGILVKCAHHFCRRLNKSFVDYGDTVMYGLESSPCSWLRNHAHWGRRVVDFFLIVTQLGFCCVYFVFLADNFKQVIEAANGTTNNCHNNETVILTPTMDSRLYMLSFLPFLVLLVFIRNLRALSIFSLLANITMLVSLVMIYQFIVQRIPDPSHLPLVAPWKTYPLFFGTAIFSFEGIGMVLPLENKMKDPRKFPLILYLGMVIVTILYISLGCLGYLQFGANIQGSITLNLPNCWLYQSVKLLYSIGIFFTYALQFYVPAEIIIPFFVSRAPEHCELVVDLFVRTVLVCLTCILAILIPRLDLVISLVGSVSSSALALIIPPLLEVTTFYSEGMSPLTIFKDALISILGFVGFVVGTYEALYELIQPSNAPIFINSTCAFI

SMILES: CC(C)Cc1ccc(C(C)C(=O)O)cc1 (racemic) [ibuprofen]
IC50 [1]: 954 µM

SMILES: CC(C(=O)O)c1ccc(-c2ccccc2)c(F)c1 (racemic) [flurbiprofen]
IC50 [2]: 280 µM

IC50 [3]: 272 µM
SMILES: O=C(O)Cc1ccccc1Nc1c(Cl)cccc1Cl [diclofenac]
